Laboratory results taken from patent publication US10842149B2, “Water conditioning adjuvant compositions and related methods for reducing herbicide volatility” (BOARD OF TRUSTEES OF MICHIGAN STATE UNIVERSITY, priority 2017, dated 2020).
Where two headings read alike, the source gives them in different places.

Legend:
GIANT FOXTAIL = assay: Effect of DTPA, EDTA and other adjuvants on glyphosate efficacy on giant foxtail (% control); format: in vivo; conditions: combined experiments 1 and 2, 10 gpa, 25 psi
VELVETLEAF = assay: Effect of DTPA on glyphosate efficacy on velvetleaf (% control); format: in vivo; conditions: Table 3, combined experiments 1, 2 and 3, 10 gpa, 25 psi, glyphosate 0.25 lb a.e./A
[1] = approximate values given by way of illustration; cited from earlier work
TOMATO = conditions: for % INJURY 7 DAT: rated 7 DAT; for % INJURY 10 DAT: rated 10 DAT; for % INJURY 14 DAT: rated 14 DAT; for % INJURY 21 DAT: rated 21 DAT; for % INJURY 28 DAT: rated 28 DAT
Source text: Reduction in herbicide volatility can be characterized using the procedure generally set forth in Penner U.S. Publication No. 2016/0255832, which includes a bioassay system for evaluating herbicide volatilization from plant substrates (e.g., using wheat and soybean plants or equivalent in a plant growth chamber with a selected adjuvant/herbicide composition including a volatile growth regulator herbicide and an aminopolycarboxylate salt). A wide range of soil, plant, environmental, and herbicide factors (e.g., vapor pressure and water solubility of herbicide, surface characteristics) can affect herbicide volatility from soils and plants. Comparison of the volatilization would be most readily visualized by appropriate bioassay systems. In the bioassay system, a herbicide composition including a volatile growth regulator herbicide (e.g., 2,4-D, dicamba, or otherwise) and optionally one or more adjuvants (e.g., including an aminopolycarboxylate salt or not) is applied foliarly to a target plant generally resistant to the herbicide (e.g., wheat plants, such as amber red wheat) or is applied to a target soil area without a target plant. Twenty minutes later, soybean plants (e.g., PIONEER 92M92 soybean plants) or other plants sensitive to the volatile growth regulator herbicide are placed in the middle of the sprayed target plants and/or soil.
The following examples illustrate the disclosed compositions and methods, but are not intended to limit the scope of any claims thereto. […] In the examples of Tables 1-3, target weeds were initially treated with glyphosate and any additional adjuvants as indicated in the tables. […] In the examples of Table 4, target soil was initially treated with dicamba and any additional adjuvants as indicated in the table, and then tomato plants were inserted into a ring of the treated soil for 24 hours. After 24 hours of sitting in the treated soil (i.e., during which time any volatilized herbicide from the soil could contact the tomato plants), the tomato plants were removed from the treated soil and grown on a laboratory bench.

[2] = pH of the treatment solutions (Table 3); format: physicochemical; conditions: pH of treatment solution, DTPA treatments adjusted with KOH (5N)
[3] = Table 1, glyphosate 0.20 (Run 1) / 0.25 (Run 2) lb a.e./A, pH adjusted to 5.5 with KOH
[4] = Table 1, glyphosate 0.20 / 0.25 lb a.e./A
[5] = Table 2, glyphosate 0.275 (exp 1) / 0.20 (exp 2) lb a.e./A
[6] = Table 2, glyphosate 0.275 / 0.20 lb a.e./A
[7] = tomato in treated soil ring: duration, dicamba 0.50 lb a.e./A
[8] = tomato inserted 1 DAT (in 1st DAT out 2nd DAT), 24 hours
[9] = tomato inserted 2 DAT (in 2nd DAT out 3rd DAT), 24 hours
[10] = tomato inserted 3 DAT (in 3rd DAT out 4th DAT), 24 hours
[11] = tomato inserted 4 DAT (in 4th DAT out 5th DAT), 24 hours
[12] = tomato inserted 7 DAT (in 7th DAT out 8th DAT), 24 hours

## O=C(O)CN(CCN(CC(=O)O)CC(=O)O)CCN(CC(=O)O)CC(=O)O [1.0% w/v DTPA, Diethylenetriaminepentaacetic acid]
GIANT FOXTAIL; [3]
  % CONTROL 7 DAT: 1%
GIANT FOXTAIL; [4]
  % CONTROL 10 DAT: 5%
  % CONTROL 14 DAT: 6%
  % CONTROL 21 DAT: 1%
GIANT FOXTAIL; [5]
  % CONTROL 7 DAT: 0%
GIANT FOXTAIL; [6]
  % CONTROL 10 DAT: 0%
  % CONTROL 14 DAT: 0%
  % CONTROL 21 DAT: 3%
VELVETLEAF
  % CONTROL 7 DAT: 0%
  % CONTROL 10 DAT: 0%
  % CONTROL 14 DAT: 5%
  % CONTROL 21 DAT: 0%

## O=C(O)CN(CCN(CC(=O)O)CC(=O)O)CC(=O)O [1.0% w/v EDTA, Ethylenediaminetetraacetic acid]
GIANT FOXTAIL; [5]
  % CONTROL 7 DAT: 0%
GIANT FOXTAIL; [6]
  % CONTROL 10 DAT: 0%
  % CONTROL 14 DAT: 0%
  % CONTROL 21 DAT: 3%

## O=C(O)CN(CCN(CC(=O)O)CC(=O)O)CC(=O)O [2 0% w/v EDTA, Ethylenediaminetetraacetic acid]
GIANT FOXTAIL; [5]
  % CONTROL 7 DAT: 0%
GIANT FOXTAIL; [6]
  % CONTROL 10 DAT: 0%
  % CONTROL 14 DAT: 0%
  % CONTROL 21 DAT: 0%

## CCCCC(CC)COC(=O)COc1ccc(Cl)cc1Cl (centres unmarked) [2,4-D 2-ethylhexyl ester]
[1]
  vapor pressure: ~4.8×10^−4 Pa

## CCCCOCCOC(=O)COc1ccc(Cl)cc1Cl [2,4-D butoxyethyl ester]
[1]
  vapor pressure: ~3.2×10^−4 Pa

## CNC.O=C(O)COc1ccc(Cl)cc1Cl [2,4-D dimethylamine salt]
[1]
  vapor pressure: ~1.3×10^−5 Pa

## CC(C)OC(=O)COc1ccc(Cl)cc1Cl [2,4-D isopropyl ester]
[1]
  vapor pressure: ~1.9×10^1 Pa

## O=C(O)CN(CCN(CC(=O)O)CC(=O)O)CCN(CC(=O)O)CC(=O)O [2.0% w/v DTPA, Diethylenetriaminepentaacetic acid]
GIANT FOXTAIL; [5]
  % CONTROL 7 DAT: 0%
GIANT FOXTAIL; [6]
  % CONTROL 10 DAT: 3%
  % CONTROL 14 DAT: 0%
  % CONTROL 21 DAT: 3%

## COc1c(Cl)ccc(Cl)c1C(=O)O [DICAMBA DGA, 3,6-dichloro-2-methoxybenzoic acid]
TOMATO; tomato in treated soil ring: duration, dicamba 0.50 lb a.e./A on bare field soil kept wet, 20 gpa, 25 psi
  % INJURY 7 DAT: 25%
TOMATO; [7]
  % INJURY 10 DAT: 27%
  % INJURY 14 DAT: 30%
  % INJURY 21 DAT: 27%
  % INJURY 28 DAT: 27%
TOMATO; tomato inserted 1 DAT (in 1st DAT out 2nd DAT), 24 hours, dicamba 0.50 lb a.e./A
  % INJURY 7 DAT: 33%
TOMATO; [8]
  % INJURY 10 DAT: 37%
  % INJURY 14 DAT: 35%
  % INJURY 21 DAT: 32%
  % INJURY 28 DAT: 25%
TOMATO; [9]
  % INJURY 7 DAT: 13%
  % INJURY 10 DAT: 23%
  % INJURY 14 DAT: 20%
  % INJURY 21 DAT: 15%
  % INJURY 28 DAT: 18%
TOMATO; [10]
  % INJURY 7 DAT: 20%
  % INJURY 10 DAT: 22%
  % INJURY 14 DAT: 2%
  % INJURY 21 DAT: 8%
  % INJURY 28 DAT: 7%
TOMATO; [11]
  % INJURY 7 DAT: 25%
  % INJURY 10 DAT: 27%
  % INJURY 14 DAT: 15%
  % INJURY 21 DAT: 25%
  % INJURY 28 DAT: 22%
TOMATO; [12]
  % INJURY 7 DAT: 17%
  % INJURY 10 DAT: 18%
  % INJURY 14 DAT: 20%
  % INJURY 21 DAT: 17%
  % INJURY 28 DAT: 7%

## O=C(O)CNCP(=O)(O)O [GLYPHOSATE, N-(phosphonomethyl)glycine]
GIANT FOXTAIL; [3]
  % CONTROL 7 DAT: 39%
GIANT FOXTAIL; [4]
  % CONTROL 10 DAT: 37%
  % CONTROL 14 DAT: 40%
  % CONTROL 21 DAT: 34%
GIANT FOXTAIL; [5]
  % CONTROL 7 DAT: 49%
GIANT FOXTAIL; [6]
  % CONTROL 10 DAT: 48%
  % CONTROL 14 DAT: 48%
  % CONTROL 21 DAT: 45%
VELVETLEAF
  % CONTROL 7 DAT: 12%
  % CONTROL 10 DAT: 12%
  % CONTROL 14 DAT: 10%
  % CONTROL 21 DAT: 6%
[2]
  pH: 4.7
